Reference: patent US20230150951A1, “2,5- OR 2,6-DISUBSTITUTED HYDROQUINONE DERIVATIVES WITH AT LEAST ONE CARBOXY, SULFO OR AMIDO GROUP USEFUL AS MEDICAMENTS” (OM PHARMA SA, priority 2020, published 2023)
Read-outs that look alike come from different tables or passages of the source.

Assays:
[1] = system: IL-4; assay: Cytokine release after LPS induction on human whole blood: IL-4; type: cell-based
Description: (§1) Aim of this in vitro method is to assess compounds effects on release of a panel of cytokines from whole blood following lipopolysaccharide (LPS) induced inflammatory reaction. Whole blood was incubated with compounds for 1 h prior to LPS induction. Cytokine levels in blood were measured using a multiplex FACS-based panel.
(§2) IC50 values determined for the tested compounds expressed in microM [μM] and the values for the inhibition of cytokines were listed for each compound.
(§3) Effect on cytokines release after LPS induction was performed on the compounds dissolved in DMSO or H2O to reach 10-fold concentrated stock solutions and dissolved in culture media.
(§4) Test system: Whole blood was removed from a single donor (into lithium heparin coated tubes; BD Vacutainer; 367886) and diluted 1:5 with RPMI 1640 (Thermo Fisher, 61870036). Within 30 minutes of sampling, blood was incubated with compounds for 1 h prior to LPS stimulation (O111:B4—Sigma L4391; 10 ng/ml final concentration). Stimulation continued under standard cell culture conditions (37° C. with 5% CO2) overnight (18 h), after which plates were centrifuged and supernatant removed and frozen at −80° C. until used for analyses.
(§5) Dilution of test compounds: 10×concentrated solutions (concerning to the final assay concentrations) of each test compound were prepared with the appropriate solvent (in DMSO or in water). These 10× compound solutions (10 μl) were then added to 90 μl pre-diluted whole blood (whole blood: RPMI1640, 1:5) resulting in the final assay concentration.
(§6) Test method: Diluted whole blood (80 μl) was pre-incubated with compounds (10 μl) to give final assay concentrations of 100, 30, 10, 3, 1, 0.3 and 0.1×10^−6M. Blood was incubated at 37° C. with 5% CO2 for 1 h. LPS was diluted in cell culture media to a concentration of […]; 10 μl was added to the whole blood to give a final concentration of 10 ng/ml. Plates were incubated at 37° C. for 18 h. Plates were centrifuged at 3,000 RPM for 5 minutes at 4° C. and supernatant removed and frozen at −80° C. until FACS analysis was carried out.
(§7) Cytokine release was measured using a custom multiplex system (ELISA Genie) according to manufacturers instructions. Prepared samples were run on an Attune NxT flow cytometer (Thermo Fisher).
(§8) Quantification of cytokine release inhibition: known concentration standards were run as part of the cytokine panel to allow quantification of each cytokine concentration in each sample. This was carried out using FCAP Array v3.0 software.
(§9) Results: The dose response relationship on cytokine release following LPS induction of inflammatory response in whole blood was assessed for all compounds. IC50 values were determined for each compound for a panel of cytokines (GM-CSF, IFN-gamma, IL-1beta, IL-2, IL-4, IL-5, IL-6, IL-8, IL-9, IL-10, IL-12p40, IL-13, IL-17A, IL-17F, IL-18, IL-21, IL-22, IL-33, TGF-beta, TNF-alpha, TNF-beta).

[2] = system: IL-5; assay: Cytokine release after LPS induction on human whole blood: IL-5; type: cell-based
Description: as §1, §2, §3, §4, §5, §6, §7, §8, §9

[3] = system: STZ-induced diabetes model; assay: STZ-induced diabetic nephropathy, kidney disease and retinopathy model (28 days treatment); conditions: for Mean day 0 blood glucose Concentration (mmol/L) (SD) / Mean day 28 blood glucose Concentration (mmol/L) (SD) / Blood BUN / Disease Score (kidney, H&E) / Eye area (retinal flatmount area covered by vasculature) / Trichrome staining (Kidney fibrosis) / Blood CRP / Blood IL-6 / Blood TGF-beta / Blood TNF-alpha / Urine albumine creatinine ratio (ALB:CRE): 15 mg/kg IV, Captopril 50 mg/kg PO; for Blood BUN / Disease Score (kidney, H&E) / Eye area (retinal flatmount area covered by vasculature) / Trichrome staining (Kidney fibrosis) / Blood CRP / Blood IL-6 / Blood TGF-beta / Blood TNF-alpha / Urine albumine creatinine ratio (ALB:CRE): day 28 of treatment (week 9); for Blood CRP / Blood IL-6 / Blood TGF-beta / Blood TNF-alpha: serum; for Urine albumine creatinine ratio (ALB:CRE): urine pooled per group; for Mean day 28 blood glucose Concentration (mmol/L) (SD) / Blood urea nitrogen levels: day 28; for Blood urea nitrogen levels: vs induced vehicle controls
Description: A total of 70 female CD-1 mice aged 5-7 weeks weighing approximately 25-30 g were used for the study. These were purchased from Charles River, UK and had 7 days acclimatization period. Animals were housed in IVC cages (up to 5 per cage) with individual mice identified by tail mark. All animals were allowed free access to a standard certified commercial diet and sanitised water during the study. The holding room was maintained under standard conditions: 18-24° C., 55-70% humidity and a 12 h light/dark cycle.
Mice were starved for 6 hours prior to injection. One week after completion of induction glucose levels were monitored and mice with levels less than 15 mml/L (280 mg/gL) were removed from the study as they had not developed the ideal severity of diabetes. Glucose levels were be monitored weekly and 5 weeks after STZ induction biochemical assessment of renal injury was carried out by measuring urine albumin and creatinine levels and confirming they were within the desired range. After successful completion of this stage animals were assigned to treatment groups.
Treatment continued for 4 weeks (28 days) with weekly measurement of blood glucose and urine albumin/creatinine. The study schedule is detailed below looking at weekly (week 5 to 9) blood glucose levels, urine albumin creatinie ratios, and terminal (week 9) blood chemistry and cytokines, kidney histology and eye-retinal leakage.
Urine Albumin: Creatinine (ALB: CRE): Urine was collected weekly and pooled for each treatment group.
ELISAs: At the end of the treatment period blood was collected and processed to serum. Serum levels of CRP, TGF-β, IL-6 and TNF-α were quantified using commercially available ELISA kits, results are shown in Table 56.

[4] = Homo sapiens, LPS 10 ng/ml, 18 h, read-out: Whole Blood: IL-4 IC50
[5] = human whole blood, inhibition of LPS induced inflammation, read-out: IC50 IL-4
[6] = Homo sapiens, LPS 10 ng/ml, 18 h, read-out: Whole Blood: IL-5 IC50
[7] = human whole blood, inhibition of LPS induced inflammation, read-out: IC50 IL-5

| Structure (SMILES) | IC50 [1, 4] [µM] | IC50 [1, 5] [µM] | IC50 [2, 6] [µM] | IC50 [2, 7] [µM] | Mean day 0 blood glucose Concentration (mmol/L) (SD) [3] | Mean day 28 blood glucose Concentration (mmol/L) (SD) [3] | Blood BUN [3] | Disease Score (kidney, H&E) [3] | Eye area (retinal flatmount area covered by vasculature) [3] | Trichrome staining (Kidney fibrosis) [3] | Blood CRP [3] | Blood IL-6 [3] | Blood TGF-beta [3] | Blood TNF-alpha [3] | Urine albumine creatinine ratio (ALB:CRE) [3] | Blood urea nitrogen levels [3] | also measured |
| --- | --- | --- | --- | --- | --- | --- | --- | --- | --- | --- | --- | --- | --- | --- | --- | --- | --- |
| O=C(O)c1cc(O)c(C(=O)Nc2ccccc2-c2nnn[nH]2)cc1O [Ia-001a-Tz, 4-(2-(1H-tetrazol-5-yl)phenyl-aminocarbonyl)-2,5-dihydroxybenzoic acid] | > 100 | 100 | > 100 | 100 | 24.9 (7.4) mmol/L | 30.8 (6.2) mmol/L | 25.3 ± 3.1 | 8 ± 3 | 11.8 ± 1 | 2.6 ± 0.98 | 5191 ± 993 | 112.35 ± 20.01 | 14.76 ± 2.95 | 327 ± 40.7 | 29.86 | – | Serum CRP ([3]; 28 days of treatment, vs vehicle induced controls): significantly reduced; Serum TNF-α ([3]; 28 days, p<0.05): significantly lower than vehicle induced controls |
| O=C(O)c1cc(NC(=O)c2cc(O)c(C(=O)O)cc2O)cc(NC(=O)c2cc(O)c(C(=O)O)cc2O)c1 [Ib-010a, 3,5-bis(2,5-dihydroxy-4-carboxybenzoylamino)benzoic acid] | > 100 | 100 | > 100 | 100 | 25.1 (6.1) mmol/L | 31.1 (3.4) mmol/L | 20.5 ± 3.4 | 6 ± 1 | 11.8 ± 1 | 1.97 ± 0.8 | 5915 ± 1352 | 102.72 ± 25.4 | 13.17 ± 3.11 | 395.6 ± 46.7 | 24.28 | significantly lower than induced vehicle controls | Urine ALB:CREA ([3]; treatment day 28): reduced |
| O=C(O)c1cc(NC(=O)c2cc(O)c(C(=O)Nc3ccccc3-c3nnn[nH]3)cc2O)ccc1O [Ic-001a-Tz/004a, 5-(4-(2-(1H-tetrazol-5-yl)phenylaminocarbonyl)-2,5-dihydroxybenzamido)-2-hydroxy benzoic acid] | – | – | – | – | 25.8 (5.7) mmol/L | 29.6 (7.8) mmol/L | 24.1 ± 4.1 | 9 ± 1 | 10.7 ± 2.1 | 2.48 ± 0.46 | 6077 ± 863 | 104.66 ± 22.89 | 15.48 ± 1.73 | 322.8 ± 40.1 | 35.10 | – | IC50 ([1]; Homo sapiens, 18 h, read-out: Whole Blood: IL-4 IC50): > 100 µM; IC50 ([1]; Homo sapiens, read-out: IC50 IL-4): 100 µM; IC50 ([2]; Homo sapiens, 18 h, read-out: Whole Blood: IL-5 IC50): > 100 µM; IC50 ([2]; Homo sapiens, read-out: IC50 IL-5): 100 µM |
| O=C(O)c1cc(NC(=O)c2cc(O)c(C(=O)Nc3ccc(O)c(C(=O)O)c3)cc2O)ccc1O [Ic-007a, 5-(4-(3-carboxy-4-hydroxyphenylaminocarbonyl)-2,5-dihydroxybenzamido)-2-hydroxy benzoic acid] | > 100 | 100 | > 100 | 100 | – | – | 21.7 ± 3.0 | 7 ± 1 | 9.1 ± 1.1 | 2.23 ± 0.61 | 5707 ± 892 | 109.27 ± 19.03 | 16.66 ± 2.11 | 326.8 ± 63^ | – | significantly lower than induced vehicle controls | Retina vasculature coverage ([3]; 28 days, retinal flat mounts, FITC-dextran): significantly decreased |
